Our source for the IC50 values is patent EP0901466B1, “BIPHENYLSULFONAMIDE MATRIX METALLOPROTEINASE INHIBITORS” (WARNER-LAMBERT COMPANY, priority 1996, dated 1997).

Each structure is given as a SMILES string.

The target of the first assay is stromelysin catalytic domain (Homo sapiens, UniProt P08254). Nature of the assay: stromelysin catalytic domain hydrolysis of thiopeptolide (SCD (T)). The assay is classed as biochemical.
stromelysin catalytic domain, sequence (P08254 100-272 limits assumed): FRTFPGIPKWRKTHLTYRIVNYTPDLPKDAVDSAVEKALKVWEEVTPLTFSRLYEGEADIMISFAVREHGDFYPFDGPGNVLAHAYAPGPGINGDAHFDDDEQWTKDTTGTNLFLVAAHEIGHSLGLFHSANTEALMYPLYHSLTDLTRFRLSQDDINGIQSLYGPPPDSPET
Conditions: not given
A word on the IC50: it is the point on the concentration scale where inhibition reaches its midpoint. As to `CC(C)[C@H](NS(=O)(=O)c1ccc(-c2ccc(Cl)cc2)cc1)C(=O)O` [Example 2, (S)-2-(4'-Chloro-biphenyl-4-sulfonylamino)-3-methyl-butyric acid], the IC50 is 100 nM.

As for `COc1ccc(-c2ccc(S(=O)(=O)N[C@H](C(=O)O)C(C)C)cc2)cc1` [Example 15, (S)-2-(4'-Methoxy-biphenyl-4-sulfonylamino)-3-methyl-butyric acid], the IC50 was 8 nM.

With `CC(C)[C@H](NS(=O)(=O)c1ccc(-c2ccc(C#N)cc2)cc1)C(=O)O` [Example 5, (S)-2-(4'-Cyano-biphenyl-4-sulfonylamino)-3-methyl-butyric acid], inhibition was half-maximal at 9 nM (IC50).

The assay is the same for the next values; noted with them: thiopeptolide substrate; read-out: SCD (T) (IC50).
Take `CC(C)[C@H](NS(=O)(=O)c1ccc(-c2ccc(F)cc2)cc1)C(=O)O` [Example 16, (S)-2-(4'-Fluoro-biphenyl-4-sulfonylamino)-3-methyl-butyric acid]: the IC50 amounted to 14 nM.

For the compound `CC(C)[C@H](NS(=O)(=O)c1ccc(-c2cccc(F)c2)cc1)C(=O)O` [Example 17, (S)-2-(3'-Fluoro-biphenyl-4-sulfonylamino)-3-methyl-butyric acid], the IC50 was determined as 27 nM.

Regarding `C[C@H](NS(=O)(=O)c1ccc(-c2ccc(Br)cc2)cc1)C(=O)O` [Example 13, (S)-2-(4'-Bromo-biphenyl-4-sulfonylamino)-propionic acid], the IC50 came to 28 nM.

Take `CC(C)[C@H](NS(=O)(=O)c1ccc(-c2ccc([N+](=O)[O-])cc2)cc1)C(=O)O` [Example 3, (S)-3-Methyl-2-(4'-nitro-biphenyl-4-sulfonylamino)-butyric acid]: the IC50 worked out at 31 nM.

Turning to `O=C(O)[C@H](Cc1ccccc1)NS(=O)(=O)c1ccc(-c2ccc(Br)cc2)cc1` [Example 10, (S)-2-(4'-Bromo-biphenyl-4-sulfonylamino)-3-phenyl-propionic acid], the IC50 was determined as 26 nM.

Consider `Cc1ccc(-c2ccc(S(=O)(=O)N[C@H](C(=O)O)C(C)C)cc2)cc1` [Example 18, (S)-3-Methyl-2-(4'-methyl-biphenyl-4-sulfonylamino)-butyric acid], for which the IC50 amounted to 12 nM.

On to `CC(C)[C@H](NS(=O)(=O)c1ccc(-c2ccc(N)cc2)cc1)C(=O)O` [Example 4, (S)-2-(4'-Amino-biphenyl-4-sulfonylamino)-3-methyl-butyric acid], for which the IC50 came out at 67 nM.

In the case of `CC(C)C[C@H](NS(=O)(=O)c1ccc(-c2ccc(Br)cc2)cc1)C(=O)O` [Example 14, (S)-2-(4'-Bromo-biphenyl-4-sulfonylamino)-4-methyl-pentanoic acid], the IC50 was 13 nM.

Turning to `O=C(O)CNS(=O)(=O)c1ccc(-c2ccc(Br)cc2)cc1` [Example 12, (4'-Bromo-biphenyl-4-sulfonylamino)-acetic acid], the IC50 amounted to 60 nM.

With `CC(C)[C@H](NS(=O)(=O)c1ccc(-c2cccc(Br)c2)cc1)C(=O)O` [Example 7, (S)-2-(3'-Bromo-biphenyl-4-sulfonylamino)-3-methyl-butyric acid], the IC50 was found to be 347 nM.

Take `CC(C)[C@H](NS(=O)(=O)c1ccc(-c2ccc(Br)cc2F)cc1)C(=O)O` [Example 8, (S)-2-(4'-Bromo-2'-fluoro-biphenyl-4-sulfonylamino)-3-methyl-butyric acid]: the IC50 was determined as 30 nM.

The target of the next assay is T1, full-length gelatinase B (Homo sapiens, UniProt P14780).
T1 construct: full-length gelatinase B (FLGB) hydrolysis of thiopeptolide
T1 sequence (P14780 94-707, species assumed): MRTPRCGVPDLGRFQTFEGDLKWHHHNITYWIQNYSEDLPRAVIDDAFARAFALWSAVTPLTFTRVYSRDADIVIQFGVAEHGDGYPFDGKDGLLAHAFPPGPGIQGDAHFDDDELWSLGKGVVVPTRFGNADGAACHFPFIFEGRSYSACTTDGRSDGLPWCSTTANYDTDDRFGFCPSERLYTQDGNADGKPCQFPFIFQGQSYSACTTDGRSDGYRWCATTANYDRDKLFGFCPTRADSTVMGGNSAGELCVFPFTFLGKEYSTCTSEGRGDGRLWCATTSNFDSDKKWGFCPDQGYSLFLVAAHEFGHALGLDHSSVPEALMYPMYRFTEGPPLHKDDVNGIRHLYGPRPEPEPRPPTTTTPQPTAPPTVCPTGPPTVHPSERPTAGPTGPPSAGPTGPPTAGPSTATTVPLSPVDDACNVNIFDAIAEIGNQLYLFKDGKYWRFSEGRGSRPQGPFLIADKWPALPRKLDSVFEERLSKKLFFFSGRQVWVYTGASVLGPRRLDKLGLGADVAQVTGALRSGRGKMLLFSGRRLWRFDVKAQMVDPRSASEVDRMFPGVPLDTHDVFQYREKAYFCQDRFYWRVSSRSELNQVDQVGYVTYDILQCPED
Briefly: full-length gelatinase B hydrolysis of thiopeptolide (FLGB). The assay is classed as biochemical. As to conditions: thiopeptolide substrate. The source says:
(§1) The compounds were additionally evaluated for their ability to inhibit full-length collagenase hydrolysis of thiopeptolide substrate (FLC) and full-length gelatinase B (FLGB) hydrolysis of thiopeptolide.
The compound `CC(C)[C@H](NS(=O)(=O)c1ccc(-c2ccc(Cl)cc2)cc1)C(=O)O` [Example 2, (S)-2-(4'-Chloro-biphenyl-4-sulfonylamino)-3-methyl-butyric acid] displayed an IC50 of 23000 nM.

`CC(C)[C@H](NS(=O)(=O)c1ccc(-c2ccc(Br)cc2)cc1)C(=O)O` [Example 1, (S)-2-(4'-Bromo-biphenyl-4-sulfonylamino)-3-methyl-butyric acid] came in with an IC50 of 8340 nM.

In a further assay the target is T2, full-length collagenase (Homo sapiens, UniProt P03956).
T2 sequence (P03956 100-469): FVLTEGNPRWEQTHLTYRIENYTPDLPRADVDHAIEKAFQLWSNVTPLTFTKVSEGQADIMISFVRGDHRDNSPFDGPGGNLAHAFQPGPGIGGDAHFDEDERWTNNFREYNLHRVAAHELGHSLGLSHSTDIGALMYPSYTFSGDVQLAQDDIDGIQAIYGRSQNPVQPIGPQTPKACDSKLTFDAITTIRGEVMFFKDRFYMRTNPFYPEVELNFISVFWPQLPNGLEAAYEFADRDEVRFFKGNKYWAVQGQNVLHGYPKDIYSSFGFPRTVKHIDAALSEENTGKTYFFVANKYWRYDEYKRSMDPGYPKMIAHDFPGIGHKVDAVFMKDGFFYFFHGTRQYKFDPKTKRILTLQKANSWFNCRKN
Briefly: full-length collagenase hydrolysis of thiopeptolide substrate (FLC).
Conditions: not given
The assay is classed as biochemical.
Source text: as §1
Compound `CC(C)[C@H](NS(=O)(=O)c1ccc(-c2ccc(Cl)cc2)cc1)C(=O)O` [Example 2, (S)-2-(4'-Chloro-biphenyl-4-sulfonylamino)-3-methyl-butyric acid] gave an IC50 of 7500 nM.
